# Results as given in publication PMC6982876, “Synthesis of Novel Benzodifuranyl; 1,3,5-Triazines; 1,3,5-Oxadiazepines; and Thiazolopyrimidines Derived from Visnaginone and Khellinone as Anti-Inflammatory and Analgesic Agents” (Molecules, 2020).
# Marks after values point to notes of the source that are not given here.
# What was measured:
# ovine COX-1 = target: T1, ovine COX-1 (Ovis aries, UniProt P05979); test: In vitro COX inhibitor screening assay (EIA kit, Cayman), COX-1; format: biochemical; settings: mean of two determinations, enzyme kit, read-out: COX1 IC50
# T1 construct: purchased Cayman Chemical, Ann Arbor, MI, USA 560131
# T1 sequence (P05979 25-600): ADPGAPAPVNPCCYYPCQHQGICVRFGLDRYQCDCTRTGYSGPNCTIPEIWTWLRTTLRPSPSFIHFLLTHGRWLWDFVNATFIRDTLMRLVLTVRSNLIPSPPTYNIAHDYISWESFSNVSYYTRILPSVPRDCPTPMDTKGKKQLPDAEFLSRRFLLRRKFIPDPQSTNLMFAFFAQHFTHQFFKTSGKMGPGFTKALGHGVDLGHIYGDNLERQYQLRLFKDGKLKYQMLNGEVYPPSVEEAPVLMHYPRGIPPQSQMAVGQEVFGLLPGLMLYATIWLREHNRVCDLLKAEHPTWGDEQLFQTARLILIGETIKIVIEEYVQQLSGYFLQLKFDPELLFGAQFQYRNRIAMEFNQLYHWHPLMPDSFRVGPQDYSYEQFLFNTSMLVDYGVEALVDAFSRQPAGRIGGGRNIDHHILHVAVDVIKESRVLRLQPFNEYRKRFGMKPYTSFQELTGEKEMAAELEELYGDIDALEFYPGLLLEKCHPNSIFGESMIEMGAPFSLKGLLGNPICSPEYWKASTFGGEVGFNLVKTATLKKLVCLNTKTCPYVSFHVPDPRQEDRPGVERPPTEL
# Description: (§1) Furthermore, the selectivity index for COX-2 (COX-1 IC50 / COX-2 IC50) was calculated for the compounds.
# [1] = test system: acetic acid-induced writhing in mice; test: Acetic acid-induced writhing test (analgesic activity); format: in vivo; settings: 10 mg/kg p.o., n = 5; for Writhing Number in 20 min (Mean ± SEM): acetic acid 1 h after dosing; for Analgesic Activity (% protection): writhing test
# Description: The analgesic activity of the compounds was performed using the writhing test as described by Gawade et al.. Mice weight ranged from 25 to 30 g. Then, mice were divided into 18 different groups, each containing five animals. The animals fasted for 8 h before the experiment. Administration of the compounds (10 mg/kg, p.o.) was performed orally. Equal doses of diclofenac as the reference drug and saline as a negative control were also administrated orally. Writhing was induced one hour after compound administration by using 0.1 mL of 1% glacial acetic acid at a volume of 0.1 mL/10 g body weight. The number of writhing responses (stretching of the abdomen, extension of hind limbs, twisting of the trunk, and elongation of the body) observed was counted for 20 min. The protection percentile against acetic acid-induced writhing was calculated according to the following formula: (1) Analgesic activity (%) =n−n′/n×100* where n is the mean number of writhes of the control group, and n’ is the mean number of writhes of the tested compound group.
# [2] = test system: carrageenan-induced paw edema in rats; test: Carrageenan-induced paw edema (anti-inflammatory activity); format: in vivo; settings: 10 mg/kg oral; for % Change in Paw Height (Mean ± SEM): n = 5
# Description: Albino rats (150–180 g) were used. The rats were divided into 11 experimental groups of five rats each. One hour after oral administration of the compounds (10 mg/kg), 0.1 mL of 1% carrageenan solution was injected in the left hind paw of each animal. Rat paw volumes were measured with a digital caliber plethysmometer (UGO Basile, Varese, Italy) used to measure inflammation height at 0, 1, 2, and 3 h after carrageenan injection. The percentage increase in inflammation in the left hind paw, in comparison to the uninjected right hind paw, was determined, calculated, and expressed as the amount of inflammation. […] The anti-inflammatory activity of the selected analgesic compounds after 3 h was expressed as percentage inhibition of edema, which was calculated according to the following equation: (2) Inhibition of edema (%) =Vcont−Vtest/Vcont×100* where V cont is the edema volume in the control group, and V test is the edema volume in the group of the screened compound.
# human recombinant COX-2 = target: T2, human recombinant COX-2 (Homo sapiens, UniProt P35354); test: In vitro COX inhibitor screening assay (EIA kit, Cayman), COX-2; format: biochemical; settings: for COX2 (SI) selectivity index: COX-1 IC50 / COX-2 IC50; for IC50: COX-2, mean of two determinations, enzyme kit, read-out: COX2 IC50
# T2 construct: purchased Cayman Chemical, Ann Arbor, MI, USA 560131
# T2 sequence (P35354 18-604): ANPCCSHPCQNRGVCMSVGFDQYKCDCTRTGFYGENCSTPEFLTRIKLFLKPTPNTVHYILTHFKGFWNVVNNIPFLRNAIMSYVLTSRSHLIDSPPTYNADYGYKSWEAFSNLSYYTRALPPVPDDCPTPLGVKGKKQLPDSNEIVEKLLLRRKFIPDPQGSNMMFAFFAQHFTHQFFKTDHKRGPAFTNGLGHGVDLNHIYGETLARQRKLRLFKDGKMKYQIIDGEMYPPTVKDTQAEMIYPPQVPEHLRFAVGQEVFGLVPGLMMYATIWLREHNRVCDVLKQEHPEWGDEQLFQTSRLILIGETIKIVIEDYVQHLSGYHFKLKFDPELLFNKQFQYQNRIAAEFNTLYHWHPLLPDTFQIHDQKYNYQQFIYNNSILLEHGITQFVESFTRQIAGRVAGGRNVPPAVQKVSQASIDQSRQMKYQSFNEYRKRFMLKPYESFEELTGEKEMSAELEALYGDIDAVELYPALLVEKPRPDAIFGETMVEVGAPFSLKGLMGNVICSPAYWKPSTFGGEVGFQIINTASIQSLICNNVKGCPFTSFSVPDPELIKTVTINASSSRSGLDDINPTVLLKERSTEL
# Description: as §1
# [3] = test system: interleukin-1 beta (IL-1 β); test: ELISA of serum interleukin-1 beta after paw edema test; format: in vivo, rats; settings: rat serum at the end of the paw edema test, mean ± SEM, n = 5
# Description: IL1 is one of the important inflammatory mediators and is used to confirm the anti-inflammatory activities of new anti-inflammatory compounds. At the end of the paw edema test, blood samples were collected from the orbital axis of the eye under light ether anesthesia. Sera were separated after centrifugation of blood at 5000 rpm for 15 min; the sera were stored at –80 °C until the ELISA assay was performed according to the manufacturer instructions.
Structure (SMILES),IC50 (ovine COX-1) [µM],Writhing Number in 20 min (Mean ± SEM) [1],Analgesic Activity (% protection) [1],melting point [°C],% Change in Paw Height (Mean ± SEM) ([2]; 1 hr after carrageenan),% Change in Paw Height (Mean ± SEM) ([2]; 2 hr after carrageenan),Anti-Inflammatory Activity (% Inhibition of Edema) ([2]; 3 hr after carrageenan) [%],% Change in Paw Height (Mean ± SEM) ([2]; 3 hr after carrageenan),COX2 (SI) selectivity index (human recombinant COX-2),IC50 (human recombinant COX-2) [µM],IL-1 β Concentration [3]
"COc1c2ccoc2cc2oc(C(Cl)=Nc3cc(Cl)nc(=S)[nH]3)c(C)c12 [Compound 8a, N-(6-chloro-2-thioxo-2,3-dihydropyrimidin-4-yl)-4-methoxy-3-methylbenzo [1,2-b: 5,4-b`] difuran-2-carbimidoyl chloride]",17,"48 ± 1.9 ^a,b",27 ± 0.60%,337 to 339,0.37 ± 0.02 ^a %,0.30 ± 0.03 ^a %,40,0.37 ± 0.02 ^a %,61,0.28,–
"COc1c2occc2c(OC)c2c(C)c(C(Cl)=Nc3cc(Cl)nc(=S)[nH]3)oc12 [Compound 8b, N-(6-chloro-2-thioxo-2,3-dihydropyrimidin-4-yl)-4,8-dimethoxy-3-methylbenzo [1,2-b: 5,4-b`] difuran-2-carbimidoyl chloride]",15.5,"47 ± 2.2 ^a,b",28 ± 0.95%,347 to 349,0.36 ± 0.01 ^a %,0.29 ± 0.02 ^a %,42,0.35 ± 0.02 ^a %,63,0.245,–
"COc1c2ccoc2cc2oc(C(Cl)=Nc3cc(Cl)nc(SC)n3)c(C)c12 [Compound 9a, N-(6-chloro-2-(methylthio)pyrimidin-4-yl)-4-methoxy-3-methylbenzo [1,2-b: 5,4-b`] difuran-2-carbimidoyl chloride]",12,"45 ± 2.4 ^a,b",30 ± 1.05%,> 350,0.35 ± 0.01 ^a %,0.28 ± 0.02 ^a %,45,0.33 ± 0.02 ^a %,70,0.17,–
"COc1c2occc2c(OC)c2c(C)c(C(Cl)=Nc3cc(Cl)nc(SC)n3)oc12 [Compound 9b, N-(6-chloro-2-(methylthio)pyrimidin-4-yl)-4,8-dimethoxy-3-methylbenzo [1,2-b: 5,4-b`] difuran-2-carbimidoyl chloride]",11.1,"44 ± 2.5 ^a,b",32 ± 1.2%,> 350,0.33 ± 0.02 ^a %,0.27 ± 0.01 ^a %,48,0.31 ± 0.01 ^a %,72,0.155,–
"COc1c2ccoc2cc2oc(C(=Nc3cc(N4CCNCC4)nc(N4CCNCC4)n3)N3CCNCC3)c(C)c12 [Compound 10a, N-(2,6-di (piperazin-1-yl)pyrimidin-4-yl)-1-(4-methoxy-3-methylbenzo [1,2-b: 5,4-b`]difuran-2-yl)-1-(piperazin-1-yl) methanimine]",4.23,25 ± 1.3 ^a,50 ± 1.6 ^a %,> 350,0.19 ± 0.01 ^a %,0.14 ± 0.02 ^a %,67,0.16 ± 0.02 ^a %,98,0.043,31 ± 0.55 ^b Pg /mL
"COc1c2ccoc2cc2oc(C(=Nc3cc(N4CCOCC4)nc(N4CCOCC4)n3)N3CCOCC3)c(C)c12 [Compound 10b, N-(2,6-dimorpholinopyrimidin-4-yl)-1-(4-methoxy-3-methylbenzo [1,2-b: 5,4-b`]difuran-2-yl)-1-morpholinomethanimine]",4.6,27 ± 1.1 ^a,48 ± 1.5 ^a %,> 350,0.21 ± 0.02 ^a %,0.16 ± 0.01 ^a %,65,0.18 ± 0.01 ^a %,96,0.048,33 ± 0.38 ^b Pg /mL
"COc1c2occc2c(OC)c2c(C)c(C(=Nc3cc(N4CCNCC4)nc(N4CCNCC4)n3)N3CCNCC3)oc12 [Compound 10c, N-(2,6-di (piperazin-1-yl)pyrimidin-4-yl)-1-(4,8-dimethoxy-3-methylbenzo [1,2-b: 5,4-b`]difuran-2-yl)-1-(piperazin-1-yl) methanimine]",4.15,24 ± 1.5 ^a,51 ± 1.4 ^a %,–,0.18 ± 0.01 ^a %,0.13 ± 0.02 ^a %,68,0.15 ± 0.02 ^a %,–,–,30 ± 0.70 ^b Pg /mL
"COc1c2occc2c(OC)c2c(C)c(C(=Nc3cc(N4CCOCC4)nc(N4CCOCC4)n3)N3CCOCC3)oc12 [Compound 10d, 1-(4,8-dimethoxy-3-methylbenzo [1,2-b: 5,4-b`]difuran-2-yl)-N-(2,6-dimorpholino-pyrimidin-4-yl)-1-morpholinomethanimine]",4.45,26 ± 1.2 ^a,49 ± 1.1 ^a %,> 350,0.20 ± 0.01 ^a %,0.15 ± 0.02 ^a %,66,0.17 ± 0.02 ^a %,97,0.046,32 ± 0.45 ^b Pg /mL
